Measurements reported in patent publication US8835469B2 (Cadila Healthcare Limited, priority 2009, dated 2014).

Target: T1, glucokinase (GK) enzyme (Homo sapiens, UniProt P35557)
T1 sequence (P35557 1-465): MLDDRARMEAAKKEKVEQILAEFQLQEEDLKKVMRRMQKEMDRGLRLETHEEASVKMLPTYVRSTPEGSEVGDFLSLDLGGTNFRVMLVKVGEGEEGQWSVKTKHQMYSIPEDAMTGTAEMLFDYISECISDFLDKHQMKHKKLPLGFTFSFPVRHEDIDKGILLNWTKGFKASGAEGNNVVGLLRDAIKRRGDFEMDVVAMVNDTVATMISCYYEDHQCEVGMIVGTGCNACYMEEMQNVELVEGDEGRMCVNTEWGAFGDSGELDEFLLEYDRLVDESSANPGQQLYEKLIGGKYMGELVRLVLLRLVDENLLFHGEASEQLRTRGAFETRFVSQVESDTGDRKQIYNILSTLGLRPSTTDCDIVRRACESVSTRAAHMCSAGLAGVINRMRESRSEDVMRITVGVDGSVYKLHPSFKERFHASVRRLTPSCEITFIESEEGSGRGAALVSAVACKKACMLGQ
Experiment: In-vitro glucokinase (GK) activation assay (coupled with glucose-6-phosphate dehydrogenase, absorbance at 340)
Format: biochemical
Conditions: glucose 2.5 mM, read-out: % of GK activity wrt DMSO; for activity at 0.1 µM: 0.1 uM compound; for activity at 1 µM: 1 uM compound; for activity at 5 µM: 5 uM compound; for activity at 10 µM: 10 uM compound
Experimental: The compound of the invention was incubated with glucokinase (GK) enzyme (0.2 units) for 10 minutes in assay buffer at 26° C. After incubation, addition of glucose-6-phosphate dehydrogenase (2.5 units), ATP (1 mM) and glucose (2.5 mM). Absorbance is measured at 340 nm for 15 minutes with 10 second interval using UV transparent plate in kinetic mode on Spectramax-190 at 30° C.

SMILES | activity at 0.1 µM [%] | activity at 1 µM [%] | activity at 5 µM [%] | activity at 10 µM [%]
Cc1nnc(-c2ccc(Oc3cc(OC4CCN(C)C4=O)cc(C(=O)Nc4ncc(C(=O)O)s4)c3)cc2)o1 (stereo not drawn) [Example 15, 2-(3-(4-(5-Methyl-1,3,4-oxadiazol-2-yl)phenoxy)-5-((1-methyl-2-oxopyrrolidin-3-yl)oxy)benzamido)thiazole-5-carboxylic acid] | 95.5 | 126 | 206 | 237
Cc1csc(NC(=O)c2cc(Oc3ccc(-c4nnc(C)o4)cc3)cc(OC3CCN(C(C)C)C3=O)c2)n1 (stereo not drawn) [Example 16, 3((1-Isopropyl-2-oxopyrrolidin-3-yl)oxy)-5-(4-(5-methyl-1,3,4-oxadiazol-2-yl)phenoxy)-N-(4-methylthiazol-2-yl)benzamide] | 106 | 169 | 259 | 280
Cc1nnc(-c2ccc(Oc3cc(OC4CCN(C(C)C)C4=O)cc(C(=O)Nc4ncc(C)s4)c3)cc2)o1 (stereo not drawn) [Example 17, 3((1-Isopropyl-2-oxopyrrolidin-3-yl)oxy)-5-(4-(5-methyl-1,3,4-oxadiazol-2-yl)phenoxy)-N-(5-methylthiazol-2-yl)benzamide] | 125 | 158 | 192 | 178
Cc1nnc(-c2ccc(Oc3cc(OC4CCN(C(C)C)C4=O)cc(C(=O)Nc4nccs4)c3)cc2)o1 (stereo not drawn) [Example 18, 3((1-Isopropyl-2-oxopyrrolidin-3-yl)oxy)-5-(4-(5-methyl-1,3,4-oxadiazol-2-yl)phenoxy)-N-(thiazol-2-yl)benzamide] | 125 | 201 | 253 | 280
Cc1csc(NC(=O)c2cc(Oc3ccc(-c4nnc(C)o4)cc3)cc(OC3CCN(C4CC4)C3=O)c2)n1 (stereo not drawn) [Example 19, 3((1-Cyclopropyl-2-oxopyrrolidin-3-yl)oxy)-5-(4-(5-methyl-1,3,4-oxadiazol-2-yl)phenoxy)-N-(4-methylthiazol-2-yl)benzamide] | 114 | 208 | 305 | 282
Cc1nnc(-c2ccc(Oc3cc(OC4CCN(C5CC5)C4=O)cc(C(=O)Nc4ncc(C)s4)c3)cc2)o1 (stereo not drawn) [Example 20, 3((1-Cyclopropyl-2-oxopyrrolidin-3-yl)oxy)-5-(4-(5-methyl-1,3,4-oxadiazol-2-yl)phenoxy)-N-(5-methylthiazol-2-yl)benzamide] | 121 | 188 | 208 | 196
Cc1nnc(-c2ccc(Oc3cc(OC4CCN(C5CC5)C4=O)cc(C(=O)Nc4nccs4)c3)cc2)o1 (stereo not drawn) [Example 21, 3((1-Cyclopropyl-2-oxopyrrolidin-3-yl)oxy)-5-(4-(5-methyl-1,3,4-oxadiazol-2-yl)phenoxy)-N-(thiazol-2-yl)benzamide] | 120 | 213 | 278 | 281
Cc1csc(NC(=O)c2cc(Oc3ccc(-c4noc(C)n4)cc3)cc(OC3CCN(C)C3=O)c2)n1 (stereo not drawn) [Example 22, 3-(4-(5-Methyl-1,2,4-oxadiazol-3-yl)phenoxy)-5-((1-methyl-2-oxopyrrolidin-3-yl)oxy)-N-(4-methylthiazol-2-yl)benzamide] | 163 | 283 | 347 | 320
Cc1nc(-c2ccc(Oc3cc(OC4CCN(C)C4=O)cc(C(=O)Nc4ncc(C)s4)c3)cc2)no1 (stereo not drawn) [Example 23, 3-(4-(5-Methyl-1,2,4-oxadiazol-3-yl)phenoxy)-5-((1-methyl-2-oxopyrrolidin-3-yl)oxy)-N-(5-methylthiazol-2-yl)benzamide] | 168 | 250 | 287 | 282
Cc1cc(NC(=O)c2cc(Oc3ccc(-c4nnc(C)o4)cc3)cc(OC3CCN(C)C3=O)c2)n[nH]1 (stereo not drawn) [Example 24, 3-(4-(5-Methyl-1,3,4-oxadiazol-2-yl)phenoxy)-N-(5-methyl-1H-pyrazol-3-yl)-5-((1-methyl-2-oxopyrrolidin-3-yl)oxy)benzamide] | 146 | 147 | 173 | 189
CCOC(=O)c1cnc(NC(=O)c2cc(Oc3ccc(-c4nnc(C)o4)cc3)cc(OC3CCN(C)C3=O)c2)s1 (stereo not drawn) [Example 25, Ethyl 2-(3-(4-(5-methyl-1,3,4-oxadiazol-2-yl)phenoxy)-5-((1-methyl-2-oxopyrrolidin-3-yl)oxy)benzamido)thiazole-5-carboxylate] | 125 | 149 | 203 | 208
CCOC(=O)c1csc(NC(=O)c2cc(Oc3ccc(-c4nnc(C)o4)cc3)cc(OC3CCN(C)C3=O)c2)n1 (stereo not drawn) [Example 26, Ethyl 2-(3-(4-(5-methyl-1,3,4-oxadiazol-2-yl)phenoxy)-5-((1-methyl-2-oxopyrrolidin-3-yl)oxy)benzamido)thiazole-4-carboxylate] | 109 | 205 | 339 | 357
CCc1nnc(-c2ccc(Oc3cc(OC4CCN(C)C4=O)cc(C(=O)Nc4nc(C)cs4)c3)cc2)o1 (stereo not drawn) [Example 27, 3-(4-(5-Ethyl-1,3,4-oxadiazol-2-yl)phenoxy)-5-((1-methyl-2-oxopyrrolidin-3-yl)oxy)-N-(4-methylthiazol-2-yl)benzamide] | 177 | 262 | 355 | 365
CC(C)Cc1nnc(-c2ccc(Oc3cc(OC4CCN(C)C4=O)cc(C(=O)Nc4nccs4)c3)cc2)o1 (stereo not drawn) [Example 28, 3-(4-(5-Isobutyl-1,3,4-oxadiazol-2-yl)phenoxy)-5-((1-methyl-2-oxopyrrolidin-3-yl)oxy)-N-(thiazol-2-yl)benzamide] | 131 | 248 | 336 | 338
CCc1nnc(-c2ccc(Oc3cc(OC4CCN(C)C4=O)cc(C(=O)Nc4nccs4)c3)cc2)o1 (stereo not drawn) [Example 29, 3-(4-(5-Ethyl-1,3,4-oxadiazol-2-yl)phenoxy)-5-((1-methyl-2-oxopyrrolidin-3-yl)oxy)-N-(thiazol-2-yl)benzamide] | 167 | 268 | 335 | 347
Cc1csc(NC(=O)c2cc(Oc3ccc(-c4nnc(CC(C)C)o4)cc3)cc(OC3CCN(C)C3=O)c2)n1 (stereo not drawn) [Example 30, 3-(4-(5-Isobutyl-1,3,4-oxadiazol-2-yl)phenoxy)-5-((1-methyl-2-oxopyrrolidin-3-yl)oxy)-N-(4-methylthiazol-2-yl)benzamide] | 126 | 249 | 370 | 386
Cc1csc(NC(=O)c2cc(Oc3ccc(-c4nnc(-c5ccccc5)o4)cc3)cc(OC3CCN(C)C3=O)c2)n1 (stereo not drawn) [Example 31, 3-((1-Methyl-2-oxopyrrolidin-3-yl)oxy)-N-(4-methylthiazol-2-yl)-5-(4-(5-phenyl-1,3,4-oxadiazol-2-yl)phenoxy)benzamide] | 146 | 295 | 356 | 343
CN1CCC(Oc2cc(Oc3ccc(-c4nnc(C5CC5)o4)cc3)cc(C(=O)Nc3nccs3)c2)C1=O (stereo not drawn) [Example 32, 3-(4-(5-Cyclopropyl-1,3,4-oxadiazol-2-yl)phenoxy)-5-((1-methyl-2-oxopyrrolidin-3-yl)oxy)-N-(thiazol-2-yl)benzamide] | 187 | 304 | 366 | 382
Cc1csc(NC(=O)c2cc(Oc3ccc(-c4nnc(C5CC5)o4)cc3)cc(OC3CCN(C)C3=O)c2)n1 (stereo not drawn) [Example 33, 3-(4-(5-Cyclopropyl-1,3,4-oxadiazol-2-yl)phenoxy)-5-((1-methyl-2-oxopyrrolidin-3-yl)oxy)-N-(4-methylthiazol-2-yl)benzamide] | 201 | 309 | 383 | 375
CN1CCC(Oc2cc(Oc3ccc(-c4nnc(-c5ccccc5)o4)cc3)cc(C(=O)Nc3nccs3)c2)C1=O (stereo not drawn) [Example 34, 3((1-Methyl-2-oxopyrrolidin-3-yl)oxy)-5-(4-(5-phenyl-1,3,4-oxadiazol-2-yl)phenoxy)-N-(thiazol-2-yl)benzamide] | 182 | 350 | 396 | 337
CCN1CCC(Oc2cc(Oc3ccc(-c4nnc(C)o4)cc3)cc(C(=O)Nc3nccs3)c2)C1=O (stereo not drawn) [Example 35, 3((1-Ethyl-2-oxopyrrolidin-3-yl)oxy)-5-(4-(5-methyl-1,3,4-oxadiazol-2-yl)phenoxy)-N-(thiazol-2-yl)benzamide] | 181 | 322 | 382 | 366
